In patent US5411943A, “Hepatoma treatment with somatostatin analogs” (Biomeasure, Inc., priority 1992, dated 1995):

How the values were obtained:
M5123 hepatoma [1] = test: Subcutaneous tumor assay, M5123 hepatoma implanted s.c. in Buffalo strain rats; type: in vivo, rat; details: for Final Tumor Size Day 15 / Percent Test/Control: 500 μg analog/inj.; for Final Tumor Size Day 15: mean ± S.D.; for Percent Test/Control: day 15
Excerpt: (§1) The M5123 hepatoma cells, obtained from Dr. H. P. Morris at the National Cancer Institute, were induced in the Buffalo strain of rats by ingestion of N-(2-fluorenylphthalamic acid) and established in serial transplantation. Implantation of the M5123 hepatoma cells in an immunodeficient athymic mouse or Buffalo strain rat reproducibly results in a progressively growing, lethal tumor.
(§2) To determine the growth inhibitory effect of bombesin analogs on hepatoma cells, two in vivo assay systems, the subcutaneous tumor assay in the syngeneic Buffalo strain rat and the subrenal capsule assay using the immunodeficient athymic nude mouse were employed.
In the subcutaneous assay, tumor grafts are implanted subcutaneously and treatment can be initiated at any selected time after the implantation.
In this assay, 20 male Buffalo strain rats were implanted s.c., right flank, with a 2 mm^3 mince of the M5123 hepatoma in the a.m. of day zero. The animals were individually identified and then randomized 10 rats in the control and 5 rats per test group. […] Tumor sizes were determined with Vernier calipers twice weekly and size calculated as the average of two diameters (length+width/2) mm.

M5123 hepatoma [2] = test: Subrenal capsule assay (SRCA), M5123 rat hepatoma xenografts in athymic female mice; type: in vivo, mouse; details: s.c., b.i.d., q.d. 1-9; for Change in Tumor Size between day 0 and day 10: mean ± s.e.m.
Excerpt: as §1, §2
SRCA was designed as a rapid in vivo method for testing chemotherapeutic agents against tumor xenografts prepared from solid malignancies. As an antitumor screening procedure, tumors, both human and murine, can be tested as xenografts in athymic female mice. For detailed description of this assay, see Bogden, A. E. et al. A rapid screening method for testing chemotherapeutic agents against human tumor xenografts. In: Proc. Symp. Use of Athymic (Nude) Mice in Cancer Research, p. 231, Edited by Houchens et al., Gustav Fisher, N.Y. (1978).
Further, an in situ determination of tumor xenograft size at time of implantation and again at termination of the assay, permits use of the very simple parameter of change in tumor size for evaluating tumor sensitivity to the analog. Since the initial measurement provides each xenograft with its own baseline for evaluating drug effects, one can measure tumor response to drugs in terms of progression, stabilization, partial remission and complete remission, which are parameters that have clinical relevance.
In this assay, xenografts prepared from the transplantation-established M5123 hepatoma were first implanted in immunodeficient athymic female mice, followed by treatment with BIM-23014, in assays of 10-day duration. Thirty two athymic female mice were implanted under the renal capsule with 1 mm cubed grafts of the M5123 rat hepatoma on day zero. Treatment with the analog was initiated on day one at 500, 250 and 50 μg per injection, s.c., b.i.d., on a q.d. 1-9 schedule. On day 10, the mice were sacrificed, the kidney was removed and the size of the tumor was measured to determine changes in tumor size between day 0 and day 10.
More specifically, the size of the tumor was measured in situ by means of a stereoscope, which was fitted with an ocular micrometer calibrated in ocular units (OMU, 10 OMU=1 mm). For each tumor, two perpendicular diameters were measured and the difference in mean tumor diameter over the 10-day period was calculated.

[3] = Body weight change (systemic toxicity) in the subcutaneous assay; type: in vivo, rat; details: for Final Body Weight/Initial Body Weight ratio: q.d. 0-15 (control 1.15)
Protocol: In this assay, 20 male Buffalo strain rats were implanted s.c., right flank, with a 2 mm^3 mince of the M5123 hepatoma in the a.m. of day zero. The animals were individually identified and then randomized 10 rats in the control and 5 rats per test group. An somatostatin analog used in the invention, H-D-β-Nal-Cys-Tyr-D-Trp-Lys-Val-Cys-Thr-NH2 (code name: BIM-23014), was administered b.i.d. Monday through Friday, and as a single total daily dose on Saturday and Sunday. Tumor sizes were determined with Vernier calipers twice weekly and size calculated as the average of two diameters (length+width/2) mm.
Since neoplasms maintain autonomous growth by autocrine and paracrine growth factors, the importance of attaining therapeutic concentrations of an antigrowth factor such as BIM-23014 at the tumor site is emphasized in this study. […] Control Final Body Weight/Initial Body Weight ratio was 1.15, as compared to 1.06 for group 2 and 1.12 for group 3.

Structure (SMILES): CC(C)[C@@H]1NC(=O)[C@H](CCCCN)NC(=O)[C@@H](Cc2c[nH]c3ccccc23)NC(=O)[C@H](Cc2ccc(O)cc2)NC(=O)[C@@H](NC(=O)[C@H](N)Cc2ccc3ccccc3c2)CSSC[C@@H](C(=O)N[C@H](C(N)=O)[C@@H](C)O)NC1=O [BIM-23014, H-D-β-Nal-Cys-Tyr-D-Trp-Lys-Val-Cys-Thr-NH2]
- Final Tumor Size Day 15 (M5123 hepatoma [1]; s.c. infusion (perilesional) b.i.d., q.d. 0-15): 10.2 ± 5.6 mm
- Percent Test/Control (M5123 hepatoma [1]; s.c. infusion b.i.d., q.d. 0-15): 62%
- Final Tumor Size Day 15 (M5123 hepatoma [1]; s.c., b.i.d., q.d. 0-15 (flank opposite from tumor)): 16.8 ± 2.4 mm
- Percent Test/Control (M5123 hepatoma [1]; s.c., b.i.d., q.d. 0-15): 102%
- Tumor inhibitory effect (in words) (M5123 hepatoma [1]; s.c. on the flank opposite from the tumor, 500 μg/inj.): no tumor inhibitory effects
- Growth of the M5123 hepatoma (in words) (M5123 hepatoma [1]; s.c. perilesional infusion, 500 μg/inj., p<0.01): significantly inhibited
- % Test/Control (M5123 hepatoma [2]; 50 μg analog/inj.): 93%
- Change in Tumor Size between day 0 and day 10 (M5123 hepatoma [2]; 50 μg analog/inj.): 37.00 ± 1.80 omu
- Inhibition (antitumor activity) (M5123 hepatoma [2]; 50 μg): 7%
- % Test/Control (M5123 hepatoma [2]; 250 μg analog/inj.): 77%
- Change in Tumor Size between day 0 and day 10 (M5123 hepatoma [2]; 250 μg analog/inj.): 30.56 ± 3.61 omu
- Reduction in the growth of the tumor (M5123 hepatoma [2]; 250 μg/injection): about 25%
- % Test/Control (M5123 hepatoma [2]; 500 μg analog/inj.): 84%
- Change in Tumor Size between day 0 and day 10 (M5123 hepatoma [2]; 500 μg analog/inj.): 33.38 ± 2.19 omu
- Inhibition (antitumor activity) (M5123 hepatoma [2]; 500 μg): 16%
- Systemic toxic effects from treatment as indicated by body weight loss (in words) ([3]; 500 μg/inj., b.i.d., q.d. 0-15): no evidence of systemic toxic effects
- Final Body Weight/Initial Body Weight ratio ([3]; group 2: 500 μg/inj., s.c., b.i.d.): 1.06
- Final Body Weight/Initial Body Weight ratio ([3]; group 3: 500 μg/inj., s.c. infusion b.i.d.): 1.12
